{"source": "patent US9387221B2", "about": "“SDF-1 binding nucleic acids and the use thereof in cancer treatment” (NOXXON Pharma AG, priority 2010, dated 2016)", "tested_on": "biotinylated human D-SDF-1", "test": "Competitive pull-down binding assay", "conditions": "for binding affinity of derivatives of 192-A10-001 in competitive pull-down binding assay: vs. 192-A10-001 and 192-A10-008; for binding affinity in competitive pull-down binding assay vs. 192-A10-001: aptamer level, reference 192-A10-001; for binding affinity in competitive pull-down binding assay vs. 191-D5-007: reference 191-D5-007; for binding affinity of derivatives of 193-G2-001 and 193-C2-001 in competitive pull-down binding assay: vs. 193-G2-001 and 193-G2-012; for binding to human SDF-1 in comparison to 193-G2-001: reference 193-G2-001", "experimental": "In order to compare different D-SDF-1 binding aptamers, a competitive ranking assay was performed. For this purpose the most affine aptamer available was radioactively labeled (see above) and served as reference. […] An excess of de- and renatured non-labeled D-RNA aptamer variants was added to different concentrations (e.g. 2, 10, and 50 nM) with the labeled reference aptamer to parallel binding reactions. The aptamers to be tested competed with the reference aptamer for target binding, thus decreasing the binding signal in dependence of their binding characteristics.", "note": "“Also recorded” adds a separate entry of the source.", "data": [{"sequence": "AAAGCAACAUGUCAAUGAAAGGUAGC (chemistry not fully specified) [192-A10-007]", "values": [{"measurement": "binding affinity of derivatives of 192-A10-001 in competitive pull-down binding assay", "result": "reduced binding affinity"}]}, {"sequence": "AGCGUGAAAGUAACACGUAAAAUGAAAGGUAACCACGCU (Made as D-RNA aptamer and L-RNA Spiegelmer, tested form not given here, further chemistry not given here) [191-A6]", "values": [{"measurement": "binding affinity in competitive pull-down binding assay vs. 192-A10-001", "result": "Weaker binding affinity"}]}, {"sequence": "AGCGUGAAGGGGUUAGGGCUCGAAGUCGGCUGACACGCU (Made as D-RNA aptamer and L-RNA Spiegelmer, tested form not given here, further chemistry not given here) [191-A5]", "values": [{"measurement": "binding affinity in competitive pull-down binding assay vs. 192-A10-001", "result": "Much weaker binding affinity"}]}, {"sequence": "AGCGUGGUGUGAUCUAGAUGUAAUGGCUGAUCCUAGUCAGGUGCGCU (chemistry not fully specified) [193-F2-001]", "values": [{"measurement": "binding affinity in competitive pull-down binding assay vs. 192-A10-001", "result": "superior binding"}]}, {"sequence": "AGCGUGGUGUGAUCUAGAUGUAGUGGCUGAUCCUAGUCAGGUACGCU (chemistry not fully specified) [193-C2-001]", "values": [{"measurement": "binding affinity in competitive pull-down binding assay vs. 192-A10-001", "result": "superior binding"}]}, {"sequence": "CCCCAAAGCAACAUGUCAAUGAAAGGUAGCGGGG (aptamer; chemistry not given here) [192-A10-023]", "values": [{"measurement": "binding affinity of derivatives of 192-A10-001 in competitive pull-down binding assay", "result": "weaker, much weaker or very much weaker binding affinity"}]}, {"sequence": "CCCGGGUUAGGGCUAGAAGUCGGCGGG (chemistry not fully specified) [191-D5-029]", "values": [{"measurement": "binding affinity in competitive pull-down binding assay vs. 191-D5-007", "result": "reduced binding affinity"}]}, {"sequence": "CCGCGGUUAGGGCUAGAAGUCGGGCGG (chemistry not given here) [191-D5-017]", "values": [{"measurement": "binding affinity in competitive pull-down binding assay vs. 191-D5-007", "result": "reduced binding affinity"}]}, {"sequence": "CGCCGGGGUUAGGGCUAGAAGUCGGCCGGCG (chemistry not fully specified) [197-B2-006-31b]", "values": [{"measurement": "binding affinity in competitive pull-down binding assay vs. 191-D5-007", "result": "the same as shown for 191-D5-007 and 197-B2-006"}]}, {"sequence": "CGCGAAAGCAACAUGUCAAUGAAAGGUAGCCGUG (aptamer; chemistry not given here) [192-A10-019]", "values": [{"measurement": "binding affinity of derivatives of 192-A10-001 in competitive pull-down binding assay", "result": "weaker, much weaker or very much weaker binding affinity"}]}, {"sequence": "CGGCGGGUUAGGGCUAGAAGUCGGCGCCG (chemistry not fully specified) [191-D5-024-29a]", "values": [{"measurement": "binding affinity in competitive pull-down binding assay vs. 191-D5-007", "result": "identical binding affinity to SDF-1 as 191-D5-007"}]}, {"sequence": "CGGGCGAGGUUAGGGCUAGAAGUCGGUCGACCG (Made as D-RNA aptamer and L-RNA Spiegelmer, tested form not given here, further chemistry not given here) [191-D5-004]", "values": [{"measurement": "binding affinity in competitive pull-down binding assay vs. 191-D5-001", "setting": "reference 191-D5-001", "result": "reduced binding affinity"}]}, {"sequence": "CGUGAAAGCAACAUGUCAAUGAAAGGUAGCCGCG (aptamer; chemistry not given here) [192-A10-016]", "values": [{"measurement": "binding affinity of derivatives of 192-A10-001 in competitive pull-down binding assay", "result": "weaker, much weaker or very much weaker binding affinity"}]}, {"sequence": "CGUGCGCUUGAGAUAGGGGUUAGGGCUUAAAGUCGGCUGAUUCUCACG (Made as D-RNA aptamer and L-RNA Spiegelmer, tested form not given here, further chemistry not given here) [190-A3-001]", "values": [{"measurement": "binding affinity in competitive pull-down binding assay vs. 192-A10-001", "result": "weaker binding affinities"}]}, {"sequence": "CGUGGUGUGAUCUAGAUGUAGUGGCUGAUCCUAGUCAGGUACG (chemistry not fully specified) [193-C2-003]", "values": [{"measurement": "binding affinity of derivatives of 193-G2-001 and 193-C2-001 in competitive pull-down binding assay", "result": "reduced binding affinity"}]}, {"sequence": "CUGUGAAAGCAACAUGUCAAUGAAAGGUAGCCGCAG (aptamer; Made as D-RNA aptamer and L-RNA Spiegelmer, tested form not given here, further chemistry not given here) [192-A10-002]", "values": [{"measurement": "binding affinity of derivatives of 192-A10-001 in competitive pull-down binding assay", "result": "without reduction of binding affinity"}]}, {"sequence": "GAAAGCAACAUGUCAAUGAAAGGUAGCC (chemistry not fully specified) [192-A10-006]", "values": [{"measurement": "binding affinity of derivatives of 192-A10-001 in competitive pull-down binding assay", "result": "reduced binding affinity"}]}, {"sequence": "GCAGUGAAAGUAACAUGUCAAUGAAAGGUAACCACAGC (aptamer; Made as D-RNA aptamer and L-RNA Spiegelmer, tested form not given here, further chemistry not given here) [192-D11]", "values": [{"measurement": "binding affinity in competitive pull-down binding assay vs. 192-A10-001", "result": "Weaker binding affinity"}]}, {"sequence": "GCAUGGUGUGAUCUAGAUGUAGUGGCUGAUCCUAGUCAGGUGCCC (chemistry not fully specified) [193-A1-002]", "values": [{"measurement": "binding to human SDF-1 in comparison to 193-G2-001", "result": "reduced binding; also recorded: weaker binding affinities"}]}, {"sequence": "GCCCAAAGCAACAUGUCAAUGAAAGGUAGCGGGC (aptamer; chemistry not given here) [192-A10-022]", "values": [{"measurement": "binding affinity of derivatives of 192-A10-001 in competitive pull-down binding assay", "result": "weaker, much weaker or very much weaker binding affinity"}]}, {"sequence": "GCCCGUGUGAUCUAGAUGUAUUGGCUGAUCCUAGUCAGGGGGC (chemistry not fully specified) [193-G2-017]", "values": [{"measurement": "binding affinity of derivatives of 193-G2-001 and 193-C2-001 in competitive pull-down binding assay", "result": "reduced binding affinity"}]}, {"sequence": "GCGAGGUGUGAUCUAGAUGUAGUGGCUGAUCCUAGUCAGGUGCGC (chemistry not fully specified) [193-G1-002]", "values": [{"measurement": "binding to human SDF-1 in comparison to 193-G2-001", "result": "reduced binding; also recorded: weaker binding affinities"}]}, {"sequence": "GCGCAAAGCAACAUGUCAAUGAAAGGUAGCGUGC (aptamer; chemistry not given here) [192-A10-017]", "values": [{"measurement": "binding affinity of derivatives of 192-A10-001 in competitive pull-down binding assay", "result": "weaker, much weaker or very much weaker binding affinity"}]}, {"sequence": "GCGCGAAAGCAACAUGUCAAUGAAAGGUAGCCGCGC (aptamer; Made as D-RNA aptamer and L-RNA Spiegelmer, tested form not given here, further chemistry not given here) [192-A10-015]", "values": [{"measurement": "binding affinity of derivatives of 192-A10-001 in competitive pull-down binding assay", "result": "reduced binding affinity; also recorded: weaker, much weaker or very much weaker binding affinity"}]}, {"sequence": "GCGCGGUGUGAUCUAGAUGUAUUGGCUGAUCCUAGUCAGGCGCGC (chemistry not fully specified) [193-G2-013]", "values": [{"measurement": "binding affinity of derivatives of 193-G2-001 and 193-C2-001 in competitive pull-down binding assay", "result": "reduced binding affinity"}]}, {"sequence": "GCGCGUGUGAUCUAGAUGUAUUGGCUGAUCCUAGUCAGGGCGC (chemistry not fully specified) [193-G2-014]", "values": [{"measurement": "binding affinity of derivatives of 193-G2-001 and 193-C2-001 in competitive pull-down binding assay", "result": "reduced binding affinity"}]}, {"sequence": "GCGGAAAGCAACAUGUCAAUGAAAGGUAGCCCGC (aptamer; chemistry not given here) [192-A10-014]", "values": [{"measurement": "binding affinity of derivatives of 192-A10-001 in competitive pull-down binding assay", "result": "weaker, much weaker or very much weaker binding affinity"}]}, {"sequence": "GCGGGGGUUAGGGCUAGAAGUCGGCCUGC (chemistry not fully specified) [197-B2-005]", "values": [{"measurement": "binding affinity of truncated derivatives of 197-B2", "setting": "vs. 197-B2 and 191-D5-007", "result": "without loss of binding affinity"}]}, {"sequence": "GCGUGGUGUGAUCUAGAUGUAAAGGCUGAUCCUAGUCAGGUACGC (chemistry not fully specified) [193-H3-002]", "values": [{"measurement": "binding to human SDF-1 in comparison to 193-G2-001", "result": "reduced binding"}]}, {"sequence": "GCGUGGUGUGAUCUAGAUGUAAUGGCUGAUCCUAGUCAGGGACGC (chemistry not fully specified) [193-D3-002]", "values": [{"measurement": "binding to human SDF-1 in comparison to 193-G2-001", "result": "reduced binding; also recorded: weaker binding affinities"}]}, {"sequence": "GCGUGGUGUGAUCUAGAUGUAGAGGCUGAUCCUAGUCAGGUACGC (chemistry not fully specified) [193-B3-002]", "values": [{"measurement": "binding to human SDF-1 in comparison to 193-G2-001", "result": "reduced binding"}]}]}
